PubChem BioAssay (NCI)
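Where inhibition never reached the appropriate level, the endpoint shown equals the highest concentration tested. Otherwise, values were interpolated linearly from a five-concentration, 48-hour dose response in 96-well plates. The concentration for 50% growth inhibition is given as GI50. TGI marks complete inhibition of growth.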

Key:
Experiment in all cases: inhibition of tumour cell growth, NCI panel, 48 h
MALME-3M melanoma = tested on: MALME-3M melanoma
MOLT-4 leukemia = tested on: MOLT-4 leukemia
SF-539 CNS = tested on: SF-539 CNS
BT-549 breast = tested on: BT-549 breast
SF-268 CNS = tested on: SF-268 CNS
KM12 colon = tested on: KM12 colon
NCI/ADR-RES ovarian = tested on: NCI/ADR-RES ovarian
NCI-H460 lung = tested on: NCI-H460 lung
HS 578T breast = tested on: HS 578T breast
IGROV1 ovarian = tested on: IGROV1 ovarian
T-47D breast = tested on: T-47D breast
HCT-15 colon = tested on: HCT-15 colon
OVCAR-8 ovarian = tested on: OVCAR-8 ovarian
EKVX NSCLC = tested on: EKVX NSCLC
SK-MEL-28 melanoma = tested on: SK-MEL-28 melanoma
SK-MEL-2 melanoma = tested on: SK-MEL-2 melanoma
UACC-257 melanoma = tested on: UACC-257 melanoma
MDA-MB-231 breast = tested on: MDA-MB-231 breast
K-562 leukemia = tested on: K-562 leukemia
OVCAR-4 ovarian = tested on: OVCAR-4 ovarian
HCT-116 colon = tested on: HCT-116 colon
OVCAR-5 ovarian = tested on: OVCAR-5 ovarian
RXF 393 renal = tested on: RXF 393 renal
HT29 colon = tested on: HT29 colon
A498 renal = tested on: A498 renal
M14 melanoma = tested on: M14 melanoma
ACHN renal = tested on: ACHN renal
MCF7 breast = tested on: MCF7 breast
U251 CNS = tested on: U251 CNS
NCI-H522 lung = tested on: NCI-H522 lung
CCRF-CEM leukemia = tested on: CCRF-CEM leukemia
HOP-62 NSCLC = tested on: HOP-62 NSCLC
SK-OV-3 ovarian = tested on: SK-OV-3 ovarian
SNB-19 CNS = tested on: SNB-19 CNS
LOX IMVI melanoma = tested on: LOX IMVI melanoma
OVCAR-3 ovarian = tested on: OVCAR-3 ovarian
SK-MEL-5 melanoma = tested on: SK-MEL-5 melanoma
A549 NSCLC = tested on: A549 NSCLC
SNB-75 CNS = tested on: SNB-75 CNS
COLO 205 colon = tested on: COLO 205 colon
HL-60(TB) leukemia = tested on: HL-60(TB) leukemia
NCI-H23 lung = tested on: NCI-H23 lung
SN12C renal = tested on: SN12C renal
SR leukemia = tested on: SR leukemia
TK-10 renal = tested on: TK-10 renal
RPMI-8226 leukemia = tested on: RPMI-8226 leukemia
MDA-MB-435 = tested on: MDA-MB-435
UO-31 renal = tested on: UO-31 renal
UACC-62 melanoma = tested on: UACC-62 melanoma
DU-145 prostate = tested on: DU-145 prostate
HOP-92 NSCLC = tested on: HOP-92 NSCLC
HCC-2998 colon = tested on: HCC-2998 colon
CAKI-1 renal = tested on: CAKI-1 renal
786-0 renal = tested on: 786-0 renal
SF-295 CNS = tested on: SF-295 CNS
SW-620 colon = tested on: SW-620 colon
PC-3 prostate = tested on: PC-3 prostate
NCI-H226 lung = tested on: NCI-H226 lung

`COC(=O)[C@H](Cc1ccc(O)cc1)NC(=O)[C@@H](OC)[C@@H]1Cc2cc3cc(OC4CC(OC5CC(O)C(O)C(C)O5)C(O)C(C)O4)c(C)c(O)c3c(O)c2C(=O)[C@H]1OC1CC(OC2CC(OC3CC(C)(O)C(O)C(C)O3)C(O)C(C)O2)C(O)C(C)O1` (stereo partly specified) was tested, and the GI50 (MALME-3M melanoma) was 39.7 nM, the TGI (MALME-3M melanoma) was 492 nM and the GI50 (MOLT-4 leukemia) was 126 nM. It also gave a TGI (MOLT-4 leukemia) greater than 25000 nM, a GI50 (SF-539 CNS) of 63.9 nM and a TGI (SF-539 CNS) of 1970 nM. The GI50 (BT-549 breast) was 78.2 nM, the TGI (BT-549 breast) was 2090 nM and the GI50 (SF-268 CNS) was 199 nM. For the same compound, the TGI (SF-268 CNS) was greater than 25000 nM, the GI50 (KM12 colon) was 106 nM and the TGI (KM12 colon) was greater than 25000 nM. For the same compound, the GI50 (NCI/ADR-RES ovarian) was greater than 25000 nM, the TGI (NCI/ADR-RES ovarian) was greater than 25000 nM and the GI50 (NCI-H460 lung) was 60.4 nM. For the same compound, the TGI (NCI-H460 lung) was greater than 25000 nM, the GI50 (HS 578T breast) was 65.4 nM and the TGI (HS 578T breast) was 5360 nM. The GI50 (IGROV1 ovarian) was 35.7 nM, the TGI (IGROV1 ovarian) was greater than 25000 nM and the GI50 (T-47D breast) was 87.3 nM. The TGI (T-47D breast) was greater than 25000 nM, the GI50 (HCT-15 colon) was 1950 nM and the TGI (HCT-15 colon) was greater than 25000 nM. For the same compound, the GI50 (OVCAR-8 ovarian) was 166 nM, the TGI (OVCAR-8 ovarian) was greater than 25000 nM and the GI50 (EKVX NSCLC) was 152 nM. It also gave a TGI (EKVX NSCLC) greater than 25000 nM, a GI50 (SK-MEL-28 melanoma) of 34.8 nM and a TGI (SK-MEL-28 melanoma) of 598 nM. It also gave a GI50 (SK-MEL-2 melanoma) of 100 nM, a TGI (SK-MEL-2 melanoma) of 748 nM and a GI50 (UACC-257 melanoma) of 124 nM. The TGI (UACC-257 melanoma) was 4390 nM, the GI50 (MDA-MB-231 breast) was 196 nM and the TGI (MDA-MB-231 breast) was greater than 25000 nM. The GI50 (K-562 leukemia) was 116 nM, the TGI (K-562 leukemia) was greater than 25000 nM and the GI50 (OVCAR-4 ovarian) was 178 nM. The TGI (OVCAR-4 ovarian) was greater than 25000 nM, the GI50 (HCT-116 colon) was 17.5 nM and the TGI (HCT-116 colon) was greater than 25000 nM. For the same compound, the GI50 (OVCAR-5 ovarian) was 207 nM, the TGI (OVCAR-5 ovarian) was greater than 25000 nM and the GI50 (RXF 393 renal) was 54.4 nM. The TGI (RXF 393 renal) was 292 nM, the GI50 (HT29 colon) was 102 nM and the TGI (HT29 colon) was greater than 25000 nM. The GI50 (A498 renal) was 89.2 nM, the TGI (A498 renal) was 451 nM and the GI50 (M14 melanoma) was 204 nM. It also gave a TGI (M14 melanoma) of 6430 nM, a GI50 (ACHN renal) of 405 nM and a TGI (ACHN renal) greater than 25000 nM. For the same compound, the GI50 (MCF7 breast) was 11.9 nM, the TGI (MCF7 breast) was greater than 25000 nM and the GI50 (U251 CNS) was 113 nM. For the same compound, the TGI (U251 CNS) was greater than 25000 nM, the GI50 (NCI-H522 lung) was 58.4 nM and the TGI (NCI-H522 lung) was greater than 25000 nM. It also gave a GI50 (CCRF-CEM leukemia) of 111 nM, a TGI (CCRF-CEM leukemia) greater than 25000 nM and a GI50 (HOP-62 NSCLC) of 106 nM. The TGI (HOP-62 NSCLC) was greater than 25000 nM, the GI50 (SK-OV-3 ovarian) was 185 nM and the TGI (SK-OV-3 ovarian) was greater than 25000 nM. It also gave a GI50 (SNB-19 CNS) of 71.3 nM, a TGI (SNB-19 CNS) greater than 25000 nM and a GI50 (LOX IMVI melanoma) of 31.6 nM. The TGI (LOX IMVI melanoma) was greater than 25000 nM, the GI50 (OVCAR-3 ovarian) was 155 nM and the TGI (OVCAR-3 ovarian) was greater than 25000 nM. The GI50 (SK-MEL-5 melanoma) was 42.8 nM, the TGI (SK-MEL-5 melanoma) was 448 nM and the GI50 (A549 NSCLC) was 150 nM. The TGI (A549 NSCLC) was greater than 25000 nM, the GI50 (SNB-75 CNS) was 77.3 nM and the TGI (SNB-75 CNS) was 1080 nM. It also gave a GI50 (COLO 205 colon) of 93.2 nM, a TGI (COLO 205 colon) of 1190 nM and a GI50 (HL-60(TB) leukemia) of 614 nM. For the same compound, the TGI (HL-60(TB) leukemia) was greater than 25000 nM, the GI50 (NCI-H23 lung) was 104 nM and the TGI (NCI-H23 lung) was greater than 25000 nM. The GI50 (SN12C renal) was 59.5 nM, the TGI (SN12C renal) was greater than 25000 nM and the GI50 (SR leukemia) was 16.3 nM. It also gave a TGI (SR leukemia) greater than 25000 nM, a GI50 (TK-10 renal) of 793 nM and a TGI (TK-10 renal) greater than 25000 nM. It also gave a GI50 (RPMI-8226 leukemia) of 41.7 nM, a TGI (RPMI-8226 leukemia) of 2020 nM and a GI50 (MDA-MB-435) of 93.1 nM. It also gave a TGI (MDA-MB-435) of 2330 nM, a GI50 (UO-31 renal) of 914 nM and a TGI (UO-31 renal) greater than 25000 nM. For the same compound, the GI50 (UACC-62 melanoma) was 22.3 nM, the TGI (UACC-62 melanoma) was 106 nM and the GI50 (DU-145 prostate) was 164 nM. It also gave a TGI (DU-145 prostate) greater than 25000 nM, a GI50 (HOP-92 NSCLC) of 38.7 nM and a TGI (HOP-92 NSCLC) of 7150 nM. It also gave a GI50 (HCC-2998 colon) of 172 nM, a TGI (HCC-2998 colon) of 758 nM and a GI50 (CAKI-1 renal) of 450 nM. For the same compound, the TGI (CAKI-1 renal) was greater than 25000 nM, the GI50 (786-0 renal) was 160 nM and the TGI (786-0 renal) was greater than 25000 nM. The GI50 (SF-295 CNS) was 132 nM, the TGI (SF-295 CNS) was greater than 25000 nM and the GI50 (SW-620 colon) was 90.2 nM. It also gave a TGI (SW-620 colon) greater than 25000 nM, a GI50 (PC-3 prostate) of 106 nM and a TGI (PC-3 prostate) greater than 25000 nM. For the same compound, the GI50 (NCI-H226 lung) was 75.9 nM and the TGI (NCI-H226 lung) was 582 nM.
